Converted amounts (≈) assume the structure as drawn.
Assays:
Format in all cases: functional
Candida albicans [1] = experiment: Antifungal activity against Candida albicans SC5314 after 24 hrs by micro-broth dilution method; conditions: SC5314, 24 h
Nannizzia gypsea = experiment: Antifungal activity against Microsporum gypseum by micro-broth dilution method
Candida parapsilosis = experiment: Antifungal activity against Candida parapsilosis by micro-broth dilution method; conditions: Lodderomyces parapsilosis
Nakaseomyces glabratus = experiment: Antifungal activity against Candida glabrata by micro-broth dilution method
Candida albicans [2] = experiment: Antifungal activity against Candida albicans Y0109 after 24 hrs by micro-broth dilution method; conditions: Y0109, 24 h
Aspergillus fumigatus = experiment: Antifungal activity against Aspergillus fumigatus by micro-broth dilution method
Trichophyton rubrum = experiment: Antifungal activity against Trichophyton rubrum by micro-broth dilution method
Cryptococcus neoformans = experiment: Antifungal activity against Cryptococcus neoformans after 72 hrs by micro-broth dilution method

Structure (SMILES)	MIC80 (Candida albicans [1]) [µg/mL]	MIC80 (Nannizzia gypsea) [µg/mL]	MIC80 (Candida parapsilosis) [µg/mL]	MIC80 (Nakaseomyces glabratus) [µg/mL]	MIC80 (Candida albicans [2]) [µg/mL]	MIC80 (Aspergillus fumigatus) [µg/mL]	MIC80 (Trichophyton rubrum) [µg/mL]	MIC80 (Cryptococcus neoformans) [µg/mL]
CCN(CC)C(=S)SCC(O)(Cn1cncn1)c1ccc(F)cc1F (racemic)	≤ 0.125	4 (≈ 10.3 µM)	0.5 (≈ 1.29 µM)	≤ 0.125	≤ 0.125	8 (≈ 20.7 µM)	8 (≈ 20.7 µM)	0.25 (≈ 0.647 µM)
CNC(=S)SCC(O)(Cn1cncn1)c1ccc(F)cc1F (racemic)	1 (≈ 2.9 µM)	> 64	> 64	2 (≈ 5.81 µM)	1 (≈ 2.9 µM)	> 64	4 (≈ 11.6 µM)	64 (≈ 186 µM)
CCNC(=S)SCC(O)(Cn1cncn1)c1ccc(F)cc1F (racemic)	1 (≈ 2.79 µM)	> 64	> 64	4 (≈ 11.2 µM)	1 (≈ 2.79 µM)	> 64	4 (≈ 11.2 µM)	64 (≈ 179 µM)
CCCNC(=S)SCC(O)(Cn1cncn1)c1ccc(F)cc1F (racemic)	0.25 (≈ 0.671 µM)	> 64	> 64	2 (≈ 5.37 µM)	0.25 (≈ 0.671 µM)	> 64	32 (≈ 85.9 µM)	64 (≈ 172 µM)
CC(C)NC(=S)SCC(O)(Cn1cncn1)c1ccc(F)cc1F (racemic)	2 (≈ 5.37 µM)	> 64	1 (≈ 2.68 µM)	4 (≈ 10.7 µM)	1 (≈ 2.68 µM)	> 64	64 (≈ 172 µM)	64 (≈ 172 µM)
CCCCNC(=S)SCC(O)(Cn1cncn1)c1ccc(F)cc1F (racemic)	0.5 (≈ 1.29 µM)	> 64	0.25 (≈ 0.647 µM)	16 (≈ 41.4 µM)	0.5 (≈ 1.29 µM)	> 64	> 64	64 (≈ 166 µM)
C=CCNC(=S)SCC(O)(Cn1cncn1)c1ccc(F)cc1F (racemic)	0.5 (≈ 1.35 µM)	64 (≈ 173 µM)	2 (≈ 5.4 µM)	4 (≈ 10.8 µM)	0.5 (≈ 1.35 µM)	> 64	64 (≈ 173 µM)	64 (≈ 173 µM)
OC(CSC(=S)NC1CC1)(Cn1cncn1)c1ccc(F)cc1F (racemic)	1 (≈ 2.7 µM)	> 64	1 (≈ 2.7 µM)	8 (≈ 21.6 µM)	1 (≈ 2.7 µM)	> 64	64 (≈ 173 µM)	64 (≈ 173 µM)
OC(CSC(=S)NC1CCCCC1)(Cn1cncn1)c1ccc(F)cc1F (racemic)	0.25 (≈ 0.606 µM)	> 64	64 (≈ 155 µM)	4 (≈ 9.7 µM)	0.25 (≈ 0.606 µM)	> 64	64 (≈ 155 µM)	16 (≈ 38.8 µM)
OC(CSC(=S)NCc1ccccc1)(Cn1cncn1)c1ccc(F)cc1F (racemic)	0.5 (≈ 1.19 µM)	32 (≈ 76.1 µM)	8 (≈ 19 µM)	8 (≈ 19 µM)	1 (≈ 2.38 µM)	> 64	0.5 (≈ 1.19 µM)	16 (≈ 38 µM)
CN(C)C(=S)SCC(O)(Cn1cncn1)c1ccc(F)cc1F (racemic)	≤ 0.125	2 (≈ 5.58 µM)	0.5 (≈ 1.39 µM)	≤ 0.125	≤ 0.125	8 (≈ 22.3 µM)	0.5 (≈ 1.39 µM)	0.5 (≈ 1.39 µM)
CN(C(=S)SCC(O)(Cn1cncn1)c1ccc(F)cc1F)c1ccccc1 (racemic)	0.5 (≈ 1.19 µM)	2 (≈ 4.76 µM)	32 (≈ 76.1 µM)	0.5 (≈ 1.19 µM)	0.25 (≈ 0.595 µM)	64 (≈ 152 µM)	2 (≈ 4.76 µM)	1 (≈ 2.38 µM)
CN(Cc1ccccc1)C(=S)SCC(O)(Cn1cncn1)c1ccc(F)cc1F (racemic)	0.25 (≈ 0.575 µM)	> 64	0.5 (≈ 1.15 µM)	0.25 (≈ 0.575 µM)	0.25 (≈ 0.575 µM)	16 (≈ 36.8 µM)	> 64	1 (≈ 2.3 µM)
CN(CCO)C(=S)SCC(O)(Cn1cncn1)c1ccc(F)cc1F (racemic)	≤ 0.125	16 (≈ 41.2 µM)	≤ 0.125	≤ 0.125	≤ 0.125	> 64	4 (≈ 10.3 µM)	8 (≈ 20.6 µM)
OCCN(Cc1ccccc1)C(=S)SCC(O)(Cn1cncn1)c1ccc(F)cc1F (racemic)	0.25 (≈ 0.538 µM)	32 (≈ 68.9 µM)	0.25 (≈ 0.538 µM)	≤ 0.125	0.25 (≈ 0.538 µM)	> 64	2 (≈ 4.31 µM)	2 (≈ 4.31 µM)
OCCN(CCO)C(=S)SCC(O)(Cn1cncn1)c1ccc(F)cc1F (racemic)	8 (≈ 19.1 µM)	1 (≈ 2.39 µM)	> 64	0.25 (≈ 0.597 µM)	8 (≈ 19.1 µM)	> 64	1 (≈ 2.39 µM)	64 (≈ 153 µM)
OC(CSC(=S)N1CCCCC1)(Cn1cncn1)c1ccc(F)cc1F (racemic)	≤ 0.125	8 (≈ 20.1 µM)	0.5 (≈ 1.25 µM)	≤ 0.125	≤ 0.125	16 (≈ 40.2 µM)	8 (≈ 20.1 µM)	≤ 0.125
OC(CSC(=S)N1CCOCC1)(Cn1cncn1)c1ccc(F)cc1F (racemic)	≤ 0.125	8 (≈ 20 µM)	0.25 (≈ 0.624 µM)	≤ 0.125	≤ 0.125	16 (≈ 40 µM)	8 (≈ 20 µM)	0.25 (≈ 0.624 µM)
CN1CCN(C(=S)SCC(O)(Cn2cncn2)c2ccc(F)cc2F)CC1 (racemic)	≤ 0.125	4 (≈ 9.67 µM)	0.25 (≈ 0.605 µM)	≤ 0.125	≤ 0.125	8 (≈ 19.3 µM)	1 (≈ 2.42 µM)	0.25 (≈ 0.605 µM)
O=C1CCN(C(=S)SCC(O)(Cn2cncn2)c2ccc(F)cc2F)CC1 (racemic)	≤ 0.125	32 (≈ 77.6 µM)	1 (≈ 2.42 µM)	≤ 0.125	≤ 0.125	8 (≈ 19.4 µM)	2 (≈ 4.85 µM)	2 (≈ 4.85 µM)
OC(CSC(=S)N1CCN(c2ccccc2)CC1)(Cn1cncn1)c1ccc(F)cc1F (racemic)	0.25 (≈ 0.526 µM)	2 (≈ 4.21 µM)	0.25 (≈ 0.526 µM)	≤ 0.125	0.25 (≈ 0.526 µM)	4 (≈ 8.41 µM)	2 (≈ 4.21 µM)	≤ 0.125
OC(CSC(=S)N1CCN(Cc2ccccc2)CC1)(Cn1cncn1)c1ccc(F)cc1F (racemic)	≤ 0.125	2 (≈ 4.08 µM)	1 (≈ 2.04 µM)	0.25 (≈ 0.511 µM)	≤ 0.125	4 (≈ 8.17 µM)	2 (≈ 4.08 µM)	0.25 (≈ 0.511 µM)
OC(CSC(=S)N1CCN(c2ccccc2F)CC1)(Cn1cncn1)c1ccc(F)cc1F (racemic)	0.5 (≈ 1.01 µM)	> 64	2 (≈ 4.05 µM)	0.5 (≈ 1.01 µM)	0.5 (≈ 1.01 µM)	> 64	1 (≈ 2.03 µM)	0.5 (≈ 1.01 µM)
OC(Cn1cncn1)(Cn1cncn1)c1ccc(F)cc1F [FLUCONAZOLE]	0.25 (≈ 0.816 µM)	32 (≈ 104 µM)	2 (≈ 6.53 µM)	2 (≈ 6.53 µM)	0.25 (≈ 0.816 µM)	> 64	4 (≈ 13.1 µM)	1 (≈ 3.27 µM)
CCC(C)n1ncn(-c2ccc(N3CCN(c4ccc(OCC5COC(Cn6cncn6)(c6ccc(Cl)cc6Cl)O5)cc4)CC3)cc2)c1=O (stereo not given) [ITRACONAZOLE]	4 (≈ 5.67 µM)	4 (≈ 5.67 µM)	8 (≈ 11.3 µM)	1 (≈ 1.42 µM)	8 (≈ 11.3 µM)	8 (≈ 11.3 µM)	4 (≈ 5.67 µM)	4 (≈ 5.67 µM)

Reference: ChEMBL document CHEMBL3112568, “Synthesis, antifungal activities and molecular docking studies of novel 2-(2,4-difluorophenyl)-2-hydroxy-3-(1H-1,2,4-triazol-1-yl)propyl dithiocarbamates” (2014)
